Laboratory results published in patent US20250163057A1, “DCN-1 MODULATING COMPOUNDS AND METHODS OF USE THEREOF” (Cellarity, Inc., priority 2023, published 2025).

Each molecule was assayed against DCN1 protein (Homo sapiens (Human), UniProt Q96GG9) (assay: Intact Protein MS Analysis with the RapidFire-TOF System (covalent adduct formation)). Conditions: MS Emax; 400 nM DCN1, 3 hours at room temperature.
Type: binding
Procedure: An MS assay was performed to evaluate the ability of the compounds to covalently modify DCN-1.
DCN1 protein, His-TEV-DCN1, were expressed in E. Coli. The His-tagged protein was first purified with an Ni-NTA column. The His-tag was cleaved using His-tag TEV protease and the His-tags were removed using a second Ni-NTA column. Protein purity was verified with SDS-PAGE and intact MS. DCN1 was dissolved in a buffer containing 25 mM Tris-HCl, 200 mM NaCl, and 1 mM DTT at 400 nM. 11 concentrations of compounds were added to the DCN1 solution and incubated at room temperature for 3 hours, unless otherwise specified. The reaction plates were quenched by adding 0.2% formic acid. […] The cartridge was re-equilibrated with loading buffer for 1 second before collection of the next sample. The Q-TOF was operated in TOF-only positive ionization mode set to the following parameters: Gas Temp=350 C, Drying Gas=7 l/min, Nebulizer=50 psi, Sheath Gas Temp=400 C, Sheath Gas Flow=12 l/min, Vcap=4000 V, Nozzle Voltage=1000 V, Fragmentor=125 V, Skimmer=65 V and Oct 1 RF Vpp=750V. Raw MS data files were deconvoluted and analyzed using the Agilent MassHunter Bioconfirm software package to identify both parent protein and expected compound adduct mass signatures.

Sequence of DCN1 protein (Q96GG9 whole entry): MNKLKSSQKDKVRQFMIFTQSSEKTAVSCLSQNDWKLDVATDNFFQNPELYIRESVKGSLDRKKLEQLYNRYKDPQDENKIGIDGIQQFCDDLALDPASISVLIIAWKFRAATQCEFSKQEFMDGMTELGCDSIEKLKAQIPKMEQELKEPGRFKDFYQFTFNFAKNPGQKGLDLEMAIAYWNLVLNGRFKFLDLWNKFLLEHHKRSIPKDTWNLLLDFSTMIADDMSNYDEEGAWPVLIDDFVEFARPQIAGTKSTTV

SMILES	% Adduct Formation
C/C=C/C(=O)N[C@H](C)c1nn(-c2ccccc2)c2c1[C@H](c1ccc(F)cc1)[C@H](NC(=O)c1cccc(C(F)(F)F)c1)C(=O)N2CC (mixture of isomers) [Compound I-238]	+ (MS Emax % adduct formation greater than or equal to 0.0 and less than or equal to 30.0)
C=C(CN(C)C)C(=O)N[C@H](C)c1nn(-c2ccccc2)c2c1[C@H](c1ccc(F)cc1)[C@H](NC(=O)c1cccc(C(F)(F)F)c1)C(=O)N2CC (mixture of isomers) [Compound I-213]	+++ (MS Emax % adduct formation greater than 80.0 and less than or equal to 100.0)
CCN1C(=O)[C@@H](NC(=O)c2cccc(C(F)(F)F)c2)[C@@H](c2ccc(F)cc2)c2c(CNC(=O)CCl)nn(-c3ccccc3)c21 (racemic) [Compound I-229]	+ (MS Emax % adduct formation greater than or equal to 0.0 and less than or equal to 30.0)
CCN1C(=O)[C@@H](NC(=O)c2cccc(C(F)(F)F)c2)[C@@H](c2ccc(F)cc2)c2c([C@@H](C)NC(=O)/C=C/CN(C)C)nn(-c3ccccc3)c21 (mixture of isomers) [Compound I-210]	+ (MS Emax % adduct formation greater than or equal to 0.0 and less than or equal to 30.0)
CCN1C(=O)[C@@H](NC(=O)c2cccc(C(F)(F)F)c2)[C@@H](c2ccc(F)cc2)c2c([C@H](C)NS(=O)(=O)CCl)nn(-c3ccccc3)c21 (racemic) [Compound I-214]	+ (MS Emax % adduct formation greater than or equal to 0.0 and less than or equal to 30.0)
CCN1C(=O)[C@@H](NC(=O)c2cccc(C(F)(F)F)c2)[C@@H](c2ccc(F)cc2)c2c(CN3CC=CC3=O)nn(-c3ccccc3)c21 (racemic) [Compound I-193]	+ (MS Emax % adduct formation greater than or equal to 0.0 and less than or equal to 30.0)
CCN1C(=O)[C@@H](NC(=O)c2cccc(C(F)(F)F)c2)[C@@H](c2ccc(F)cc2)c2c(C3CO3)nn(-c3ccccc3)c21 (relative stereo) [Compound I-196, N-((4RS,5RS)-7-ethyl-4-(4-fluorophenyl)-3-((S*)-oxiran-2-yl)-6-oxo-1-phenyl-4,5,6,7-tetrahydro-1H-pyrazolo[3,4-b]pyridine-5-yl)-3-(trifluoromethyl)benzamide]	+ (MS Emax % adduct formation greater than or equal to 0.0 and less than or equal to 30.0)
CCN1C(=O)[C@@H](NC(=O)c2cccc(C(F)(F)F)c2)[C@@H](c2ccc(F)cc2)c2c([C@@H](C)NC(=O)COc3c(F)c(F)cc(F)c3F)nn(-c3ccccc3)c21 (mixture of isomers) [Compound I-168]	+ (MS Emax % adduct formation greater than or equal to 0.0 and less than or equal to 30.0)
CCN1C(=O)[C@@H](NC(=O)c2cccc(C(F)(F)F)c2)[C@@H](c2ccc(F)cc2)c2c(CNC(=O)/C=C/CN(C)C)nn(-c3ccccc3)c21 (racemic) [Compound I-220]	+ (MS Emax % adduct formation greater than or equal to 0.0 and less than or equal to 30.0)
CCN1C(=O)[C@@H](NC(=O)c2cccc(C(F)(F)F)c2)[C@@H](c2ccc(F)cc2)c2c(CNC(=O)/C=C/CN3CCOCC3)nn(-c3ccccc3)c21 (racemic) [Compound I-183]	+ (MS Emax % adduct formation greater than or equal to 0.0 and less than or equal to 30.0)
CCN1C(=O)[C@@H](NC(=O)c2cccc(C(F)(F)F)c2)[C@@H](c2ccc(F)cc2)c2c(N3C=CC3=O)nn(-c3ccccc3)c21 (racemic) [Compound I-194, N-((4S,5S)-7-ethyl-4-(4-fluorophenyl)-6-oxo-3-(2-oxoazet-1(2H)-yl)-1-phenyl-4,5,6,7-tetrahydro-1H-pyrazolo[3,4-b]pyridine-5-yl)-3-(trifluoromethyl)benzamide]	+ (MS Emax % adduct formation greater than or equal to 0.0 and less than or equal to 30.0)
CCN1C(=O)[C@@H](NC(=O)c2cccc(C(F)(F)F)c2)[C@@H](c2ccc(F)cc2)c2c(CNC(=O)C3=CCCC3)nn(-c3ccccc3)c21 (racemic) [Compound I-232]	+ (MS Emax % adduct formation greater than or equal to 0.0 and less than or equal to 30.0)
CCN1C(=O)[C@@H](NC(=O)c2cccc(C(F)(F)F)c2)[C@@H](c2ccc(F)cc2)c2c(CN(C)C(=O)C3=CCC3)nn(-c3ccccc3)c21 (racemic) [Compound I-200]	+ (MS Emax % adduct formation greater than or equal to 0.0 and less than or equal to 30.0)
C=C(C(=O)OCC)c1nn(-c2ccccc2)c2c1[C@H](c1ccc(F)cc1)[C@@H](NC(=O)c1cccc(C(F)(F)F)c1)C(=O)N2CC (racemic) [Compound I-195, rac-ethyl 2-((4R,5S)-7-ethyl-4-(4-fluorophenyl)-6-oxo-1-phenyl-5-(3-(trifluoromethyl)benzamido)-4,5,6,7-tetrahydro-1H-pyrazolo[3,4-b]pyridine-3-yl)acrylate]	+ (MS Emax % adduct formation greater than or equal to 0.0 and less than or equal to 30.0)
CCN1C(=O)[C@@H](NC(=O)c2cccc(C(F)(F)F)c2)[C@@H](c2ccc(F)cc2)c2c(CNC(=O)COc3c(F)c(F)cc(F)c3F)nn(-c3ccccc3)c21 (racemic) [Compound I-182]	+ (MS Emax % adduct formation greater than or equal to 0.0 and less than or equal to 30.0)
CCN1C(=O)[C@@H](NC(=O)c2cccc(C(F)(F)F)c2)[C@@H](c2ccc(F)cc2)c2c([C@@H](C)NC(=O)/C=C/CN3CCOCC3)nn(-c3ccccc3)c21 (mixture of isomers) [Compound I-165]	+ (MS Emax % adduct formation greater than or equal to 0.0 and less than or equal to 30.0)
CCN1C(=O)[C@@H](NC(=O)c2cccc(C(F)(F)F)c2)[C@@H](c2ccc(F)cc2)c2c(CNS(=O)(=O)CCl)nn(-c3ccccc3)c21 (racemic) [Compound I-198]	+ (MS Emax % adduct formation greater than or equal to 0.0 and less than or equal to 30.0)
CCN1C(=O)[C@@H](NC(=O)c2cccc(C(F)(F)F)c2)[C@@H](c2ccc(F)cc2)c2c([C@@H](C)NC(=O)C(C)Cl)nn(-c3ccccc3)c21 (stereo in doubt) [Compound I-212]	+ (MS Emax % adduct formation greater than or equal to 0.0 and less than or equal to 30.0)
C=C(C(=O)N(C)C)c1nn(-c2ccccc2)c2c1[C@H](c1ccc(F)cc1)[C@H](NC(=O)c1cccc(C(F)(F)F)c1)C(=O)N2CC (racemic) [Compound I-188, rac-N-((4R,5R)-3-(3-(dimethylamino)-3-oxoprop-1-en-2-yl)-7-ethyl-4-(4-fluorophenyl)-6-oxo-1-phenyl-4,5,6,7-tetrahydro-1H-pyrazolo[3,4-b]pyridine-5-yl)-3-(trifluoromethyl)benzamide]	+ (MS Emax % adduct formation greater than or equal to 0.0 and less than or equal to 30.0)
C=CS(=O)(=O)Nc1nn(-c2ccccc2)c2c1[C@H](c1ccc(F)cc1)[C@H](NC(=O)c1cccc(C(F)(F)F)c1)C(=O)N2CC (racemic) [Compound I-187]	+++ (MS Emax % adduct formation greater than 80.0 and less than or equal to 100.0)
CCN1C(=O)[C@@H](NC(=O)c2cccc(C(F)(F)F)c2)[C@@H](c2ccc(F)cc2)c2c([C@H](C)NC(=O)CCl)nn(-c3ccccc3)c21 (mixture of isomers) [Compound I-175]	+ (MS Emax % adduct formation greater than or equal to 0.0 and less than or equal to 30.0)
CCN1C(=O)[C@@H](NC(=O)c2cccc(C(F)(F)F)c2)[C@@H](c2ccc(F)cc2)c2c(NC(=O)C(F)Cl)nn(-c3ccccc3)c21 (mixture of isomers) [Compound I-120]	+ (MS Emax % adduct formation greater than or equal to 0.0 and less than or equal to 30.0)
CCN1C(=O)[C@@H](NC(=O)c2cccc(C(F)(F)F)c2)[C@@H](c2ccc(F)cc2)c2c([C@@H](C)NS(=O)(=O)CCl)nn(-c3ccccc3)c21 (mixture of isomers) [Compound I-215]	+ (MS Emax % adduct formation greater than or equal to 0.0 and less than or equal to 30.0)
CCN1C(=O)[C@@H](NC(=O)c2cccc(C(F)(F)F)c2)[C@@H](c2ccc(F)cc2)c2c(CNC(=O)/C=C/C(F)(F)F)nn(-c3ccccc3)c21 (racemic) [Compound I-221]	+ (MS Emax % adduct formation greater than or equal to 0.0 and less than or equal to 30.0)
CCN1C(=O)[C@@H](NC(=O)c2cccc(C(F)(F)F)c2)[C@@H](c2ccc(F)cc2)c2c([C@@H](C)NC(=O)C(F)Cl)nn(-c3ccccc3)c21 (stereo in doubt) [Compound I-239]	+ (MS Emax % adduct formation greater than or equal to 0.0 and less than or equal to 30.0)
C#Cc1nn(-c2ccccc2)c2c1[C@H](c1ccc(F)cc1)[C@H](NC(=O)c1cccc(C(F)(F)F)c1)C(=O)N2CC (racemic) [Compound I-199, N-((4S,5S)-7-ethyl-3-ethynyl-4-(4-fluorophenyl)-6-oxo-1-phenyl-4,5,6,7-tetrahydro-1H-pyrazolo[3,4-b]pyridine-5-yl)-3-(trifluoromethyl)benzamide]	+ (MS Emax % adduct formation greater than or equal to 0.0 and less than or equal to 30.0)
CCN1C(=O)[C@@H](NC(=O)c2cccc(C(F)(F)F)c2)[C@@H](c2ccc(F)cc2)c2c(CNC(=O)/C(C#N)=C/C3CC3)nn(-c3ccccc3)c21 (racemic) [Compound I-217]	+ (MS Emax % adduct formation greater than or equal to 0.0 and less than or equal to 30.0)
